Test results reported in US5386832A, “Liver function breath test using aromatic amino acids” (New England Deaconess Hospital, priority 1993, dated 1995).
Several values for one entry are separate records, joined by “and”; a condition that tells them apart may be missing. Identical values can stand only once.

System: liver function
Experiment: breath test: oral 13C-phenylalanine, labeled CO2 in expired breath
Type: in vivo, patient
Details: 100 mg oral; for maximum percent dose oxidized within 10 minutes / cumulative percent dose oxidized: group mean; for cumulative percent dose oxidized: 1 hr; for Max. % Dose Oxidized/10 min. / Cumulative 1 hr % Dose Oxidized: overnight fast; for Max. % Dose Oxidized/10 min.: breath every ten minutes for one hour; for Cumulative 1 hr % Dose Oxidized: over one hour
Text: All of the participants in the test are first required to fast overnight. This minimizes metabolic effects of meal absorption and the contribution of endogenous label appearing in the breath from natural levels of the endogenous isotope in the diet. While the preferred isotope for use in the test is ^13 C, other carbon isotopes (or even nitrogen isotopes) could be used. At least two baseline breath samples are collected and the mean isotope value in these samples is used as a background. This background is subtracted from the ^13 C levels determined following isotopic administration in order to obtain the change in ^13 C level.
All breath samples, both those collected prior to administration of the isotope and those after administration, are collected with a commercially available breath sampler such as a Quintron AlveoSampler. These samplers have a mouthpiece and a collection bag with a one-way valve there between. The breath samples are trapped in a syringe and the contents of the syringe are injected into a […] evacuation tube such as a Exetainer tube.
In the preferred mode of the invention, ^13 C-phenylalanine is used as the isotope tracer. One hundred mg doses of L-1-^13 C-phenylalanine are dissolved in 50 ml of water and the dose is administered orally. The dose bottle is washed with another 50ml of water and the wash is administered to the patient to make sure that all the phenylalanine was released from the dose bottle. Although intravenous or intramuscular administration of the isotope tracer could be used, the oral dose acts sufficiently and is much easier to administer.
Breath samples are collected every ten minutes for one hour after dosage. The amount of labeled isotope is measured using an isotope ratio mass spectrometer such a Europa Scientific Gas Isotope Ratio Mass Spectrometer (Europa Scientific, Inc., Cincinnati, Ohio). The ratio of ^13 C-CO2 to ^12 C-CO2 (mass ratio 45:44) is measured and compared to a reference CO2 tank. The reference CO2 is calibrated to the international PDB standard and the amount of labeled ^13 C is determined by the following formula
The mean Atom % ^13 C values are subtracted to determine the Atom % Excess ^13 C. The % Dose Oxid (or percent dose oxidized) is calculated from formulas 2 and 3.
Total ^13 C Excreted[…]%^13 C(from AUC)×5×(time in
min.)×Body Surface Area (m^2) (2)
% Dose Oxid=Total ^13 C Excreted/Dose (mmoles)×100% (3)
Two groups of subjects were used to test the efficacy of the present system. The first group contained 16 normal subjects while the second had 12 patients with various levels of liver disease.

[1] = 12 patients with liver disease, P<0.05 vs control
[2] = control group, 16 normal subjects, P<0.05 vs patients
[3] = individual control (normal) subjects 1-16
[4] = individual patients 17-28 with liver disease

`N[C@@H](Cc1ccccc1)[13C](=O)O` [L-1-^13 C-phenylalanine] was tested, and the “maximum percent dose oxidized within 10 minutes” value [1] was 0.50±0.27%, the “cumulative percent dose oxidized” value [1] was 1.82±0.93% and the “maximum percent dose oxidized within 10 minutes” value [2] was 2.15±0.84%. For the same compound, the “cumulative percent dose oxidized” value [2] was 7.62±2.87%, the “Max. % Dose Oxidized/10 min.” value [3] was 2.46% and 4.53% and 1.48% and 1.57% and 2.81% and 2.82% and 1.20% and 2.31% and 1.05% and 1.65% and 2.19% and 2.37% and 2.60% and 2.11% and 1.75% and the “Cumulative 1 hr % Dose Oxidized” value [3] was 8.56% and 15.53% and 3.96% and 6.52% and 7.14% and 9.86% and 11.12% and 3.78% and 7.34% and 4.44% and 6.21% and 7.78% and 7.71% and 7.50% and 7.57% and 6.83%. The “Max. % Dose Oxidized/10 min.” value [4] was 0.43% and 0.62% and 0.36% and 0.93% and 0.49% and 0.17% and 0.38% and 0.58% and 1.09% and 0.46% and the “Cumulative 1 hr % Dose Oxidized” value [4] was 2.16% and 2.81% and 1.25% and 2.00% and 1.59% and 0.51% and 1.29% and 1.46% and 0.61% and 2.22% and 3.88% and 2.02%.
